How the values were obtained:
Test in all cases: Protein kinase selectivity panel
Assay type in all cases: biochemical
Details in all cases: 1.0 μM compound, 10 μM ATP
FGFR3(h) = FGFR3(h) (Homo sapiens, UniProt P22607)
Protocol: (§1) Protein kinase selectivity assays were performed as described in the scientific literature (Davies, S. P., et al., Biochem. J. 2000, 351, 95-105). Briefly, protein kinases were assayed for their ability to phosphorylate the appropriate peptide/protein substrates in the presence of 1.0 μM compound. Assays were done using 10 μM ATP and were linear with respect to time. The protein kinase selectivity assays were performed by Upstate Cell Signaling Solutions using Upstate's KinaseProfiler™ Selectivity Screening Service.

MEK1(h) = MEK1(h) (Homo sapiens, UniProt Q02750)
Chain of MEK1(h) (Q02750 whole entry): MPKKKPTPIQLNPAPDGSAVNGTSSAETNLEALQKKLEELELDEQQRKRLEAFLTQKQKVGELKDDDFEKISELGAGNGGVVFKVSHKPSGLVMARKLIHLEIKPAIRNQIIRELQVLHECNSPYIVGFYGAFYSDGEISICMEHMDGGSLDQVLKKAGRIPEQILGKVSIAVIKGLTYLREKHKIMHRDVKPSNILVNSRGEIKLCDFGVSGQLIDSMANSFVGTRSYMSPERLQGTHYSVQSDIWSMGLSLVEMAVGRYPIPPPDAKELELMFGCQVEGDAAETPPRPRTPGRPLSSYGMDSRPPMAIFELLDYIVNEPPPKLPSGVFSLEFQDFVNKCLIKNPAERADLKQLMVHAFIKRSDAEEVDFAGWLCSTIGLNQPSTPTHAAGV
Protocol: as §1

JNK1α1(h) = JNK1α1(h) (Homo sapiens, UniProt P45983)
Chain of JNK1α1(h) (P45983 1-384 isoform P45983-2): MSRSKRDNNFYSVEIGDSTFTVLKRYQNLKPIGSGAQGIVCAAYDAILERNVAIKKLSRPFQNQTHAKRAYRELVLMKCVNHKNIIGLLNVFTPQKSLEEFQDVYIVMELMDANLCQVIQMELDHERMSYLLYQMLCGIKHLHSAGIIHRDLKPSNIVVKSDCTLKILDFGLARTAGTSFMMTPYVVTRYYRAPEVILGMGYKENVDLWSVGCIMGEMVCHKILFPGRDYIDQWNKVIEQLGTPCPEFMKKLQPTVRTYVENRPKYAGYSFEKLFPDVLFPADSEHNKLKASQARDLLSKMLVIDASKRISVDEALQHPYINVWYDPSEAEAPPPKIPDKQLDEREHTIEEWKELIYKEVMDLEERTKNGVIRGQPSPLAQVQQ
Protocol: as §1

CDK3/cyclinE(h) = CDK3/cyclinE(h) (Homo sapiens, UniProt Q00526)
Chain of CDK3/cyclinE(h) (Q00526 whole entry): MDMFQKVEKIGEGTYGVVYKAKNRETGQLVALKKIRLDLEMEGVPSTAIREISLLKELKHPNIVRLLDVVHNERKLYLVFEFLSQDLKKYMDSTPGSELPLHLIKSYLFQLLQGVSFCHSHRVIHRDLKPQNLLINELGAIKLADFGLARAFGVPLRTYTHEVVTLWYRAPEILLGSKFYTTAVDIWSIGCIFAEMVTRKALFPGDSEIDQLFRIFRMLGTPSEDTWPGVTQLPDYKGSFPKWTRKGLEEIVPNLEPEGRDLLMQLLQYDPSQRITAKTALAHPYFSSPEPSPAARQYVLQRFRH
Chain of CDK3/cyclinE(h) (P24864 whole entry partner): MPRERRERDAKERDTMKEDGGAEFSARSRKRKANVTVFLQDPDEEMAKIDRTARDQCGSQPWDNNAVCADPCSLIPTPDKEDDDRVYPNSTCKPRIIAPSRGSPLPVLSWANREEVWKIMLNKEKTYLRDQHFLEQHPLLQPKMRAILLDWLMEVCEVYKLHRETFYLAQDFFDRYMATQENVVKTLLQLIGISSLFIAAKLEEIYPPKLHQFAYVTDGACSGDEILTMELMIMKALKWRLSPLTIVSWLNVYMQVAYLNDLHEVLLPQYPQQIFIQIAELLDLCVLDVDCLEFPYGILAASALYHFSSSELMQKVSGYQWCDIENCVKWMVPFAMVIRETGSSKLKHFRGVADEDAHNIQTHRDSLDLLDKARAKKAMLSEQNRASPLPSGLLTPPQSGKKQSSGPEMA
Protocol: as §1

Abl(T315l)(h) = Abl(T315l)(h) (Homo sapiens, UniProt P00519, T315I)
Protocol: as §1

PKCα(h) = PKCα(h) (Homo sapiens, UniProt P17252)
Protocol: as §1

NEK2(h) = molecular target: T1, NEK2(h) (Homo sapiens, UniProt P51955)
T1 sequence (P51955 1-445): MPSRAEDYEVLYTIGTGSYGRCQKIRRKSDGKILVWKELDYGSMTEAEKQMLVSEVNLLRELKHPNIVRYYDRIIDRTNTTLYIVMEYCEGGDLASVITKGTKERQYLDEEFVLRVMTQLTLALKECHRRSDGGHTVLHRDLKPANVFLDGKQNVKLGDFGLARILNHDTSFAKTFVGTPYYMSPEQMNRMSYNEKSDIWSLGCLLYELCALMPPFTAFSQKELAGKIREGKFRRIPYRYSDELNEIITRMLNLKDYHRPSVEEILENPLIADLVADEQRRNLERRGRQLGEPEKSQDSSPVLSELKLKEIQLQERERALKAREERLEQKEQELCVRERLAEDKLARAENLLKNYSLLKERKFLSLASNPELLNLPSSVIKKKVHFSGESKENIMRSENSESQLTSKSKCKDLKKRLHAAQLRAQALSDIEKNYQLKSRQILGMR
Protocol: as §1

MST2(h) = molecular target: T2, MST2(h) (Homo sapiens, UniProt Q13188)
T2 sequence (Q13188 1-491): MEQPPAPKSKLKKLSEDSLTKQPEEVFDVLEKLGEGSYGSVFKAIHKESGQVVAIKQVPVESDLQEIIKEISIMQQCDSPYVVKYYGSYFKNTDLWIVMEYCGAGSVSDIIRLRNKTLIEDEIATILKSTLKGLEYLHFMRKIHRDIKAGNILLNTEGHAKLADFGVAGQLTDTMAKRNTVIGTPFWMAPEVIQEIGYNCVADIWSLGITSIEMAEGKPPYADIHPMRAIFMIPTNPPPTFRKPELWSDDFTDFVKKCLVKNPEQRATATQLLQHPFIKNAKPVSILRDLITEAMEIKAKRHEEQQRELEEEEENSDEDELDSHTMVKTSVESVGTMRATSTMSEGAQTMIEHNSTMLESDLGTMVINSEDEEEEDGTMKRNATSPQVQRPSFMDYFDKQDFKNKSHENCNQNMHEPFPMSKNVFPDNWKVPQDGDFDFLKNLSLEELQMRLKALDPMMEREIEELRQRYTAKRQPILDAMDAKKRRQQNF
Protocol: as §1

PKCζ(h) = molecular target: T3, PKCζ(h) (Homo sapiens, UniProt Q05513)
T3 sequence (Q05513 1-592): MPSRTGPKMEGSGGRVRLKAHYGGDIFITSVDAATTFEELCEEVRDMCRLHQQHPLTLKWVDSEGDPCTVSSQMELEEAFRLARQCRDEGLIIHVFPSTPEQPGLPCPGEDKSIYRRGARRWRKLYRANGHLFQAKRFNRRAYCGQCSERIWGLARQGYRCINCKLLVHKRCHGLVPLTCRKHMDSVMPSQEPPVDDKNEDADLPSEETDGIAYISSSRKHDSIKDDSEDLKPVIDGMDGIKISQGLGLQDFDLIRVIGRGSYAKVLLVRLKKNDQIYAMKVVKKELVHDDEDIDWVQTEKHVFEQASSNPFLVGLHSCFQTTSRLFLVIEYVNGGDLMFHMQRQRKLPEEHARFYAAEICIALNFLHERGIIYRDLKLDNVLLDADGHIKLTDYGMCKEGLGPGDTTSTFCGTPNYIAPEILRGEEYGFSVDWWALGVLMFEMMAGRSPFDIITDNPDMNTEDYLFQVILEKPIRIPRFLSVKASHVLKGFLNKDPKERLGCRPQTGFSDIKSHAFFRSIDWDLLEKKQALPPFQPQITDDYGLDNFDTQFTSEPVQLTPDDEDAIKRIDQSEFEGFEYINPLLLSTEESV
Protocol: as §1

PKCβII(h) = PKCβII(h) (Homo sapiens, UniProt P05771)
Chain of PKCβII(h) (P05771 1-673 isoform P05771-2): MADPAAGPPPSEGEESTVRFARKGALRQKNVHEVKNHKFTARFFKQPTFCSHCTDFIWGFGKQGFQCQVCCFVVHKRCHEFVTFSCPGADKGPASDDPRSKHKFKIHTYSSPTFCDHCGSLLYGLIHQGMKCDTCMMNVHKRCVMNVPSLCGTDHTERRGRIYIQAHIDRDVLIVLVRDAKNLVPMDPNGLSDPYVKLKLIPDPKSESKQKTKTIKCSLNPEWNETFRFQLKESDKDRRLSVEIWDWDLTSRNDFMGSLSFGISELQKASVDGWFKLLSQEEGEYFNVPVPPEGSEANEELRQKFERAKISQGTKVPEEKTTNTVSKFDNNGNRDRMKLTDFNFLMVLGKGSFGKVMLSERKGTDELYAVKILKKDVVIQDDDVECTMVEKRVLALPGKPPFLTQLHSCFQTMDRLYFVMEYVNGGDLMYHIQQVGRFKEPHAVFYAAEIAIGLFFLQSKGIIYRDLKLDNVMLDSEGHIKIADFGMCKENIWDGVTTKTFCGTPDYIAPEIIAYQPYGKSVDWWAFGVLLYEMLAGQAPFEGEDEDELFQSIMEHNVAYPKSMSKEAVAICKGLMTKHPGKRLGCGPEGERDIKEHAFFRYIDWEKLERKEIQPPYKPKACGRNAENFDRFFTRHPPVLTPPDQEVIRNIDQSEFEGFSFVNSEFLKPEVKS
Protocol: as §1

Syk(h) = Syk(h) (Homo sapiens, UniProt P43405)
Protocol: as §1

PKCι(h) = molecular target: T4, PKCι(h) (Homo sapiens, UniProt P41743)
T4 sequence (P41743 1-596): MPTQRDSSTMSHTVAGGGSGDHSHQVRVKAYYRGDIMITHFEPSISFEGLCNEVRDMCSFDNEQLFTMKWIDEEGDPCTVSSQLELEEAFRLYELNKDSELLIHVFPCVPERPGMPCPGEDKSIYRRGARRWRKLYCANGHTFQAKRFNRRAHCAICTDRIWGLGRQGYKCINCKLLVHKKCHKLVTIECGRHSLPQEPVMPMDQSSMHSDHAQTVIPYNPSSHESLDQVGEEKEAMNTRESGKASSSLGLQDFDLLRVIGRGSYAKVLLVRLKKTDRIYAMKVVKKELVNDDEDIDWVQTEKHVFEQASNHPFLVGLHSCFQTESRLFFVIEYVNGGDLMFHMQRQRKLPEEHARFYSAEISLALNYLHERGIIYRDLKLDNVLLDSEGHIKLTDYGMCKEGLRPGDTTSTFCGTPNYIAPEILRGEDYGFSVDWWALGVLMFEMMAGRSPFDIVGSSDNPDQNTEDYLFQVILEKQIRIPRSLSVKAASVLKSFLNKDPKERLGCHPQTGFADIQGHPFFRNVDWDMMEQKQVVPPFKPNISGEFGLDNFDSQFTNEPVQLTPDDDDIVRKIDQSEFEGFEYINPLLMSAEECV
Protocol: as §1

Chain of FGFR3(h) (P22607 23-806): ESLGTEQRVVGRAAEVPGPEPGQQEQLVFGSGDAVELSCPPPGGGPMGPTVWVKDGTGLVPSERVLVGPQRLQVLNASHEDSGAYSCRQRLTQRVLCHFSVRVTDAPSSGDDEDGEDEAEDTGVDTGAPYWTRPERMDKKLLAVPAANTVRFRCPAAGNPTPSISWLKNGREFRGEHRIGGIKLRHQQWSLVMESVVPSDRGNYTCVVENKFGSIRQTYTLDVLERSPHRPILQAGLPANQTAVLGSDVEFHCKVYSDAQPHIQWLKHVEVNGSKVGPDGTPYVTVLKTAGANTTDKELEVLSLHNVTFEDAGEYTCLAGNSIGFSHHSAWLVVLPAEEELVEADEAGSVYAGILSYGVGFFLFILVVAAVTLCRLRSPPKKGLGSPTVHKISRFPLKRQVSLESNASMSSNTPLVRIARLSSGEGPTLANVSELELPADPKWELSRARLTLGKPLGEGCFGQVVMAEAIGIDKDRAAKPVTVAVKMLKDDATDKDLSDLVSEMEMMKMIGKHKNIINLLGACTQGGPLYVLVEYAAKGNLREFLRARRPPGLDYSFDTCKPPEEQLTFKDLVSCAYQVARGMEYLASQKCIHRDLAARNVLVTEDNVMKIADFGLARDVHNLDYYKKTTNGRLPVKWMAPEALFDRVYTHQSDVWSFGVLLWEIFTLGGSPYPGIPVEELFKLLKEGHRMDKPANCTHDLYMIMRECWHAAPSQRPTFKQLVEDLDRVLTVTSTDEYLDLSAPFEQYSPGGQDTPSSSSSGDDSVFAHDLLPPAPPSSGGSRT

Row | SMILES | Activity at Protein Kinase Assays (% of control), FGFR3(h) (FGFR3(h)) | Activity at Protein Kinase Assays (% of control), MEK1(h) (MEK1(h)) | Activity at Protein Kinase Assays (% of control), JNK1α1(h) (JNK1α1(h)) | Activity at Protein Kinase Assays (% of control), CDK3/cyclinE(h) (CDK3/cyclinE(h)) | Activity at Protein Kinase Assays (% of control), Abl(T315l)(h) (Abl(T315l)(h)) | Activity at Protein Kinase Assays (% of control), PKCα(h) (PKCα(h)) | Activity at Protein Kinase Assays (% of control), NEK2(h) (NEK2(h)) | Activity at Protein Kinase Assays (% of control), MST2(h) (MST2(h)) | Activity at Protein Kinase Assays (% of control), PKCζ(h) (PKCζ(h)) | Activity at Protein Kinase Assays (% of control), PKCβII(h) (PKCβII(h)) | Activity at Protein Kinase Assays (% of control), Syk(h) (Syk(h)) | Activity at Protein Kinase Assays (% of control), PKCι(h) (PKCι(h))
1 | CN(C)c1nc2ccc1CCCCn1cc(c3ccccc31)C1=C(C(=O)NC1=O)c1cn(c3ccccc13)CCC2 [Cpd 1, 31-(dimethylamino)-5,15,25,32-tetraazaheptacyclo[28.2.2.1^5,12.1^18,25.0^6,11.0^13,17.0^19,24]hexatriaconta-1(32),6,8,10,12(36),13(17),18(35),19,21,23,30,33-dodecaene-14,16-dione] | 75 % of control | 76 % of control | 102 % of control | 59 % of control | 100 % of control | 68 % of control | 104 % of control | 103 % of control | 98 % of control | 64 % of control | 86 % of control | 104 % of control
2 | CN(C)c1cc2cc(n1)CCCn1cc(c3ccccc31)C1=C(C(=O)NC1=O)c1cn(c3ccccc13)CCC2 [Cpd 2, 20-(dimethylamino)-4,14,19,26-tetraazaheptacyclo[24.6.1.1^7,14.1^18,22.0^2,6.0^8,13.0^27,32]pentatriaconta-1(33),2(6),7(35),8,10,12,18(34),19,21,27,29,31-dodecaene-3,5-dione] | 84 % of control | 93 % of control | 105 % of control | 89 % of control | 79 % of control | 74 % of control | 102 % of control | 84 % of control | 105 % of control | 68 % of control | 101 % of control | 117 % of control
3 | O=C1NC(=O)C2=C1c1cn(c3ccccc13)CCCc1cc(nc(N3CCCC3)c1)CCCn1cc2c2ccccc21 [Cpd 6, 20-pyrrolidin-1-yl-4,14,19,26-tetraazaheptacyclo[24.6.1.1^7,14.1^18,22.0^2,6.0^8,13.0^27,32]pentatriaconta-1(33),2(6),7(35),8,10,12,18(34),19,21,27,29,31-dodecaene-3,5-dione] | 114 % of control | 91 % of control | 108 % of control | 86 % of control | 77 % of control | 82 % of control | 105 % of control | 100 % of control | 99 % of control | 74 % of control | 105 % of control | 121 % of control
4 | O=C1NC(=O)C2=C1c1cn(c3ccccc13)CCCc1ccc(c(N3CCCC3)n1)CCCn1cc2c2ccccc21 [Cpd 7, 31-pyrrolidin-1-yl-5,15,25,30-tetraazaheptacyclo[27.2.2.1^5,12.1^18,25.0^6,11.0^13,17.0^19,24]pentatriaconta-1(31),6,8,10,12(35),13(17),18(34),19,21,23,29,32-dodecaene-14,16-dione] | 117 % of control | 98 % of control | 104 % of control | 106 % of control | 103 % of control | 83 % of control | 99 % of control | 86 % of control | 116 % of control | 77 % of control | 109 % of control | 90 % of control

— patent US7759331B2, “Pyridine-containing macroheterococylic compounds as kinase inhibitors” (Janssen Pharmaceutica NV, priority 2006, dated 2010)
